Laboratory results from ChEMBL document CHEMBL1154669, “5-Aryl indanones and derivatives as non-steroidal progesterone receptor modulators” (Bioorg Med Chem Lett, 2009).

Columns and labels:
Progesterone receptor [1] = target: T1, Progesterone receptor (Homo sapiens, UniProt P06401); assay: Inhibition of progesterone receptor in human T47D cells assessed as progesteron-induced alkaline phosphatase activity; format: cell-based
T1 sequence (P06401 whole entry): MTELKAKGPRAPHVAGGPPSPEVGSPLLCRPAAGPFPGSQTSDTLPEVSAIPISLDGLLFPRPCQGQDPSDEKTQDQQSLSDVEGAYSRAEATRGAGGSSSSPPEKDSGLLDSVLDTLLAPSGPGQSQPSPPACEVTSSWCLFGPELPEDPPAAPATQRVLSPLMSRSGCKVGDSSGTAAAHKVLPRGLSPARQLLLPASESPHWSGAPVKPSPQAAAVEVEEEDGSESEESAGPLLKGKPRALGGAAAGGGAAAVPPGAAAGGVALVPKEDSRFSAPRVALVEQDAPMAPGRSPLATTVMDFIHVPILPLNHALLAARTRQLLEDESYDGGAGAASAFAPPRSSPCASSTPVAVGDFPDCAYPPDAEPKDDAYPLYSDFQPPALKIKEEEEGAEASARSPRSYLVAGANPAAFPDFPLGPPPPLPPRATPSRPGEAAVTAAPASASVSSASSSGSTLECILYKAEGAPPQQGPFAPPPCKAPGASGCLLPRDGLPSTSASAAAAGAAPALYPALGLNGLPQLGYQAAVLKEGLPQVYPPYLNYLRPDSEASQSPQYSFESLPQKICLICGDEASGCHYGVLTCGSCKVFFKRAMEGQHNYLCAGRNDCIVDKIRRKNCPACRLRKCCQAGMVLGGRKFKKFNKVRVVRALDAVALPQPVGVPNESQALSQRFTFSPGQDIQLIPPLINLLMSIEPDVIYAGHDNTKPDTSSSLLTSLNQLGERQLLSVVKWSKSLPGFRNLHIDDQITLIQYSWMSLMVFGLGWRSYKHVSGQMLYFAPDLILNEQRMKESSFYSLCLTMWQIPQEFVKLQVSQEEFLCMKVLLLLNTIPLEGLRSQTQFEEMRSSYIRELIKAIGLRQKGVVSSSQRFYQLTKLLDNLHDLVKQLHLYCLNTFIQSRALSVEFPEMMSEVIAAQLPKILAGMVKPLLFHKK

Progesterone receptor [2] = target: T1, Progesterone receptor; assay: Agonist activity at progesterone receptor in human T47D cells assessed as alkaline phosphatase activity; format: functional, cell-based

Row | Compound | IC50 (Progesterone receptor [1]) [µM] | EC50 (Progesterone receptor [2]) [µM]
1 | CC1C/C(=N/O)c2ccc(-c3ccc(C#N)n3C)cc21 (configuration not stated) | 0.065 | > 3
2 | CC1(C)CC(=O)c2ccc(-c3ccc(Cl)c(Cl)c3)cc21 | 0.079 | –
3 | CC1(C)C/C(=N\O)c2ccc(-c3cccc(Cl)c3)cc21 | 0.49 | –
4 | CC1(C)CC(=O)c2ccc(-c3cccc(C#N)c3)cc21 | 0.195 | –
5 | Cc1cccc(-c2ccc3c(c2)C(C)(C)C/C3=N\O)c1 | 0.316 | –
6 | Cn1c(C#N)ccc1-c1ccc2c(c1)C(C)(C)CC2O (configuration not stated) | – | 0.019
7 | CC1(C)C/C(=N\O)c2ccc(-c3cccc(C#N)c3)cc21 | 0.317 | –
8 | Cn1c(C#N)ccc1-c1ccc2c(c1)CC/C2=N/O | 0.132 | > 3
9 | Cn1c(C#N)ccc1-c1ccc2c(c1)C(C)(C)CC2(C)O (configuration not stated) | – | 0.001
10 | CCC1(O)CC(C)(C)c2cc(-c3ccc(C#N)n3C)ccc21 (configuration not stated) | – | 0.002

The remaining compounds from weak to strong by IC50 (Progesterone receptor [1]), led by results:

Row | IC50 (Progesterone receptor [1]) [µM] | EC50 (Progesterone receptor [2]) [µM] | Compound
11 | 0.034 | > 3 | Cn1c(C#N)ccc1-c1ccc2c(c1)CCC2=O
12 | 0.018 | > 3 | CC1CC(O)c2ccc(-c3ccc(C#N)n3C)cc21 (configuration not stated)
13 | 0.014 | > 3 | Cn1c(C#N)ccc1-c1ccc2c(c1)C(C)(C)C/C2=N/O
14 | 0.01 | > 3 | Cn1c(C#N)ccc1-c1ccc2c(c1)CCC2O (configuration not stated)
15 | 0.003 | > 3 | C#CCC1(O)CC(C)(C)c2cc(-c3ccc(C#N)n3C)ccc21 (configuration not stated)
